This is an account of results in patent publication US20100298282A1, “Treatment of Ocular Conditions and the Side-Effects of Glucocorticoids” (priority 2006, published 2010).

Each structure is given as a SMILES string. Read-outs that look alike come from different tables or passages of the source. Marks after values point to notes of the source that are not given here.

Experiment [1] addresses T1, human recombinant receptor (PR) (Homo sapiens, UniProt P06401).
T1 sequence (P06401 1-933): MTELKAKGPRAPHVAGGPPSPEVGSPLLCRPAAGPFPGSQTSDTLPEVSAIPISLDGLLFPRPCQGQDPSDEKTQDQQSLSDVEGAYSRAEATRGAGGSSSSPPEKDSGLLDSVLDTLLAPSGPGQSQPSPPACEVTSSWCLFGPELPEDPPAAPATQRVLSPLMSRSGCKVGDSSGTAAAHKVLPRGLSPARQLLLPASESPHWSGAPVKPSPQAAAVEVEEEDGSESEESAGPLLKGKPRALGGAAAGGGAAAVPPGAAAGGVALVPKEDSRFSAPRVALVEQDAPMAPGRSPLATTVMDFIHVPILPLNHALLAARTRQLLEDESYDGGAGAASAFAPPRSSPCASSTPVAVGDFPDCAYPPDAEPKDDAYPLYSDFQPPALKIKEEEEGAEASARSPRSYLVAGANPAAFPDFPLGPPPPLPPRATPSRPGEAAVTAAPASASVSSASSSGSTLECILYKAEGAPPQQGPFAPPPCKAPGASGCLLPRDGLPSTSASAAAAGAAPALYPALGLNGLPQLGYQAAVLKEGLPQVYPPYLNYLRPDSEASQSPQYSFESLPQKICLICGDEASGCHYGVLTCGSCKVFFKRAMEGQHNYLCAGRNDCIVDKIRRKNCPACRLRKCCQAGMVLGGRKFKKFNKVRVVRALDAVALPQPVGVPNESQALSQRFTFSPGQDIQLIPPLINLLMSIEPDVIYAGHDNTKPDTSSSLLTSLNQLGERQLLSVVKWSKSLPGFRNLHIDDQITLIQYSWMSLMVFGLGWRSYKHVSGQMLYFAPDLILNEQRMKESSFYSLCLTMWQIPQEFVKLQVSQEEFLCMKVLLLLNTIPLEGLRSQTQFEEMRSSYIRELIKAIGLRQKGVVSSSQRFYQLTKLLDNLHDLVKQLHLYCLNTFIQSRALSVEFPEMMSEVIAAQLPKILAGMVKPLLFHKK
The experiment is described as follows: PR binding, radioligand binding with [3H]-progesterone. How it is done: (§1) The methods are described by Gill et al. and Morgan et al., supra.
PR binding was assessed using the same methods, using the human recombinant receptor and [^3H]-progesterone. IC50 values were determined from six-point concentration/inhibition curves performed in duplicate at semi-log concentrations.

Experiment [2] concerns the target T2, native glucocorticoid receptors (Homo sapiens, UniProt P04150).
T2 construct: cell line that expresses native glucocorticoid receptors; endogenous in cells; host or cells: SW1353 human chondrosarcoma cells, stably transfected only with a GRE-luciferase reporter
T2 sequence (P04150 1-777): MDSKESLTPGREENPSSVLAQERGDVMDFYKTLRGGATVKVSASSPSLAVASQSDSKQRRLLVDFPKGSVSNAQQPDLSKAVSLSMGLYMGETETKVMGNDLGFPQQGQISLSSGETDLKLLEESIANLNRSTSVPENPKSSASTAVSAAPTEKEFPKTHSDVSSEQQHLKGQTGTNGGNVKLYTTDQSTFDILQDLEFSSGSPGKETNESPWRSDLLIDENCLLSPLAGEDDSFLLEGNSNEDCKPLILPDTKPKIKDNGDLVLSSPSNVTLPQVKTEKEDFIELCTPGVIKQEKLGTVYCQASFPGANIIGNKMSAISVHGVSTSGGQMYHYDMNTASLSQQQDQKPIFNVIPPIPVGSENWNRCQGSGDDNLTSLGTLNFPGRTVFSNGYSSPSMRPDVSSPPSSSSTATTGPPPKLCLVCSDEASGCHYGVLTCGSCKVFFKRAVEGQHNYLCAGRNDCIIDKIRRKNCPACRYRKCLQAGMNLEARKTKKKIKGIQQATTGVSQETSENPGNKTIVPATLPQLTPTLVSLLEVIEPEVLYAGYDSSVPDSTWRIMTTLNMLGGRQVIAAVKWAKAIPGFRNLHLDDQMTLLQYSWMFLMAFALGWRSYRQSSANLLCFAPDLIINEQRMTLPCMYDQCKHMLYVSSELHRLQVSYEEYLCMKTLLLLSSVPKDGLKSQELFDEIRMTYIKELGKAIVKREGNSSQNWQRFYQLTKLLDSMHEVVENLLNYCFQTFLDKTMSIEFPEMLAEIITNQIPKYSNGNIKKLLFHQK
The experiment is described as follows: Glucocorticoid reporter gene assay (GRE-luciferase) in SW1353 cells, GR antagonist activity. Type of experiment: cell-based. To be noted: for IC50: 24 hours, in the presence of 50 nM dexamethasone; for Ki: Ki=IC50/(1+[Dex]/EC50Dex). An excerpt:
Depending on the intended use and route of administration, various criteria may be used to determine a GR antagonist for use in the invention. […] The GR antagonism preferably negates more than 30%, more preferably more than 50%, and most preferably more than 90%, of the GR agonism at sites distant from the site of administration of the corticosteroid, and negates less than 70%, more preferably less than 50%, and most preferably less than 10%, of the GR agonism at the site of intended action of the corticosteroid.
The glucocorticoid reporter gene assay was performed in SW1353 human chondrosarcoma cell line that expresses native glucocorticoid receptors (Morgan et al., supra), stably transfected with a vector containing a glucocorticoid-responsive element (GRE) linked to the firefly luciferase gene. […] Compounds were tested on two separate occasions to determine inter-assay variability.
Ki values were calculated from the equation
Ki=IC50/(1+[Dex]/EC50^Dex)
(Reporter assays use an easily measured gene product as a stand-in for the process of interest.)

Experiment [3] has as its target T3, human recombinant receptor (GR) (Homo sapiens, UniProt P04150).
T3 sequence (P04150 1-777): T2 sequence (P04150 1-777)
The experiment can be described thus: GR binding, glucocorticoid radioligand binding with [3H]-dexamethasone.
Source text: as §1

Experiment [4] deals with GR receptors in the iris-ciliary body (Oryctolagus cuniculus, UniProt P59667). To be noted: rabbit eye; cited from earlier work.
In the next experiment the test system is intraocular pressure. To be noted: rabbit, cited from earlier work.
Experiment [5] has as its system Intraocular pressure (IOP). The experiment is described as follows: Intraocular pressure after a single eye drop in New Zealand White rabbits. It counts as in vivo. To be noted: rabbit; for IOP at 3 hours, Mean (SEM) / IOP at 4 hours, Mean (SEM): 0.3% single eye drop; for decrease in IOP compared to vehicle-treated group: at 3 and 4 hours. How it is done: Healthy female New Zealand White rabbits were tested in a randomized, blind, controlled study, with 6 animals per treatment group. They were acclimatized for 7 days prior to the start of the study. Intraocular pressure (IOP) was measured in both eyes pre-treatment and at intervals after instillation of a single eye drop of vehicle or test compound into the left eye of each animal, administered from a dropper bottle. The volume of each drop was approximately 60-65 microlitres. The vehicle was a sterile solution of 15% hydroxpropyl-β-cyclodextrin, 5% polyethylene glycol, 0.5% hydroxypropylmethylcellulose in deionised water, adjusted to pH 7 with HCl or NaOH as appropriate. […] IOP was measured using a Mentor Tonopen XL (Lim et al., 2005, Invest Opthalmol Vis Sci 46 2419-23), after topical administration of 0.5% proxymetacaine HCl local anaesthetic. Ten recordings per eye per time point were taken and a mean reading documented.

For a further experiment, the system named is rat skin. To be noted: given subcutaneously or topically to the skin; cited from earlier work.
The mark [6] stands for this setting: read-out: GR Antagonist Mean Ki.

Sequence of GR receptors in the iris-ciliary body (P59667 whole entry): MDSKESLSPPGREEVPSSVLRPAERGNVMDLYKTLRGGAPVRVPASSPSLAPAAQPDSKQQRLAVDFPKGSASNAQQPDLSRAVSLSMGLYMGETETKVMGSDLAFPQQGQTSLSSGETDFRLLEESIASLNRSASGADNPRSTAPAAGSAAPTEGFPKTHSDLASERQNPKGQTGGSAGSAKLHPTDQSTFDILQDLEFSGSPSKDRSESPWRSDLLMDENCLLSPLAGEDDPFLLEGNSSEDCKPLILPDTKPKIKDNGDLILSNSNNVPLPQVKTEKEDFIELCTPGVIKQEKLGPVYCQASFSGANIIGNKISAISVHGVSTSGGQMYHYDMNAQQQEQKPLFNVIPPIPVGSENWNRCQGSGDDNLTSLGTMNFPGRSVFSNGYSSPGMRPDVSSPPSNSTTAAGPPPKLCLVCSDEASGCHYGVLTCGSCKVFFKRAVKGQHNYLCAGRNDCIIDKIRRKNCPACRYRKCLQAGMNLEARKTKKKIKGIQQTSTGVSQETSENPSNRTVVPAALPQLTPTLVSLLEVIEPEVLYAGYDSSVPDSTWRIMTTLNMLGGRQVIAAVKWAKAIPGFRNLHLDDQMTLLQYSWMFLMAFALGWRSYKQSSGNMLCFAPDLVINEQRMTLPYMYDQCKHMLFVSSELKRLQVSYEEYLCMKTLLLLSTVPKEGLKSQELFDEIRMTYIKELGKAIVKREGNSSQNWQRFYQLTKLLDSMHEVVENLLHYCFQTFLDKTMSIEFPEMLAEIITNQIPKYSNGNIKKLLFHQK

As a reminder, the IC50 is the concentration that gives 50% inhibition. By Ki is commonly meant the equilibrium dissociation constant of an inhibitor or competing ligand from its target. On to `CC#C[C@]1(O)CC[C@H]2[C@@H]3CCC4=CC(=O)CCC4=C3[C@@H](c3ccc(NC)cc3)C[C@@]21C` [RU42633], for which the IC50 in experiment [1] came to 4.46 nM; in experiment [2], 17.3 nM; in experiment [3] it was 1.12 nM. For the same compound, the figures for the Ki in experiment [1], in experiment [2] (setting [6]) and in experiment [3] were 1.79 nM, 2.55 nM and 0.56 nM, respectively.

As for `CC#C[C@]1(O)CC[C@H]2[C@@H]3CCC4=CC(=O)CCC4=C3[C@@H](c3ccc(N(C)C)cc3)C[C@@]21C` [RU486, Mifepristone], in experiment [4], the “binding to GR receptors in iris-ciliary body” value is listed as “specifically blocks the binding of the GR agonist triamcinolone”. For the same compound, the “effect on intraocular pressure, topical” value with intraocular pressure (1% suspension eyedrops topically, after 4-13 weeks of treatment) is given as “falls in intraocular pressure have been noted”. Further, in the experiment on intraocular pressure (1% suspension injected subconjunctivally), the “effect on intraocular pressure, subconjunctival injection” value is given as “falls in intraocular pressure were reported”. Also, in experiment [5], the “IOP at 3 hours, Mean (SEM)” value is 11.67 (1.23) mm Hg; the “IOP at 4 hours, Mean (SEM)” value is 11.83 (1.19) mm Hg; the “decrease in IOP compared to vehicle-treated group” value (“decrease in IOP” below) is given as “did not induce a statistically significant decrease in IOP”. The “effect on steroid-induced skin atrophy” value in the experiment on rat skin is on record as “blocked atrophogenic effect of the topical steroid without affecting its anti-inflammatory effect”.

For `CC#C[C@]1(O)CC[C@H]2[C@@H]3CCC4=CC(=O)CCC4=C3[C@@H](c3ccc(N)cc3)C[C@@]21C` [RU42848], the IC50 in experiment [1] turned out to be 15.9 nM; in experiment [2], 58.3 nM; in experiment [3], 1.36 nM. Further, the Ki worked out at 6.37 nM in experiment [1], 8.6 nM in experiment [2] (setting [6]) and 0.68 nM in experiment [3]. The “IOP at 3 hours, Mean (SEM)” value in experiment [5] was 11.67 (0.49) * mm Hg. For the same compound, the “IOP at 4 hours, Mean (SEM)” value in experiment [5] is reported as 11.50 (0.34) * mm Hg. Moreover, the “decrease in IOP” value in experiment [5] is recorded as “induced a significant decrease in IOP”.

Take `CN(C)c1ccc([C@H]2C[C@@]3(C)[C@@H](CC[C@]3(O)C#CCO)[C@@H]3CCC4=CC(=O)CCC4=C32)cc1` [RU42698]: in experiment [1], the IC50 came out at 10.6 nM and the Ki was determined as 4.24 nM. Also, the IC50 in experiment [2] amounted to 80.9 nM. The Ki in experiment [2] (setting [6]) came out at 12.6 nM. In addition, in experiment [5], the “IOP at 3 hours, Mean (SEM)” value is given as 11.83 (0.40) * mm Hg; the “IOP at 4 hours, Mean (SEM)” value is 11.83 (0.31) * mm Hg; the “decrease in IOP” value is recorded as “induced a significant decrease”. Further, in experiment [3], the IC50 turned out to be 1.74 nM and the Ki was 0.87 nM.

For the compound `COc1cccc2c1-c1ccc(NS(C)(=O)=O)cc1C(c1cccc(C)c1)O2` (stereo not drawn) [Compound A-362947, N-[1-methoxy-6-(3-methylphenyl)-6H-benzo{c}chromen-8-yl]methanesulfonamide], the IC50 in experiment [1] came out at 1330 nM; in experiment [3], 5.64 nM. The inhibition constant Ki in experiment [1] turned out to be 531 nM; in experiment [2] (GR Antagonist Mean Ki), 50.4 nM; in experiment [3], 2.82 nM.
